Data on eleven compounds can be found in patent US10414763B2 (CANCER RESEARCH TECHNOLOGY LIMITED, priority 2014, dated 2019).

Broadly, the IC50 is the concentration needed to halve the response being measured.

Molecules are shown by their SMILES.

For this test, the target named is T1, full-length human PKCι (Homo sapiens, UniProt P41743).
T1 construct: Recombinant, full-length human PKCι expressed in Sf21 insect cells is also commercially available; purchased EMD Millipore; host or cells: Sf21 insect cells (baculovirus)
T1 sequence (P41743 1-596): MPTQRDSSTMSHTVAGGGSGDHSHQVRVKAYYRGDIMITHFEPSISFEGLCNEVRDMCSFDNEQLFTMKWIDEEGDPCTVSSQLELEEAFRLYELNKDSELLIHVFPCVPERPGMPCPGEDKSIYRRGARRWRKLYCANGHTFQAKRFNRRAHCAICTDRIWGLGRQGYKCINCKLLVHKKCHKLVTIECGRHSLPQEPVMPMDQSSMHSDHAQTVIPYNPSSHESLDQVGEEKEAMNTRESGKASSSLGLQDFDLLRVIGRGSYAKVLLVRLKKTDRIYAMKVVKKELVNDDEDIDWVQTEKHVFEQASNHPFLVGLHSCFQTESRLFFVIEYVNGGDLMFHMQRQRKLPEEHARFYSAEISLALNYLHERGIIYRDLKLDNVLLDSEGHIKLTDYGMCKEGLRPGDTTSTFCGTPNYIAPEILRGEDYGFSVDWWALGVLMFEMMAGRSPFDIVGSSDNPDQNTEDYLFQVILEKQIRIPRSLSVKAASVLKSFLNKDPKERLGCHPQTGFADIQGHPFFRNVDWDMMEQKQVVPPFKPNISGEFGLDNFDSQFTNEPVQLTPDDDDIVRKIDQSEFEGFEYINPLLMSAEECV
Kind of test: PKCι IC50 IMAP fluorescence polarisation assay, full-length enzyme, 150 μM ATP. It is filed as biochemical. The note with it: read-out: IC50 in IMAP assay against full length PKCi at 150 μM ATP. The essentials: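 IMAP fluorescence polarisation kinase assay: 15 pM baculovirus-expressed human PKCiota with 100 nM FAM-pseudosubstrate peptide and 150 μM ATP, 1 h at 25 °C. IMAP detection reagent then 2 h at 25 °C before FP measurement. Inhibition referenced to no-compound and no-enzyme controls for IC50 fitting.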
A general note: In fluorescence polarisation assays a small probe gives low polarisation when free and higher when bound to something large.

As for `FC1CNCCC(Nc2nc(-c3ccnc4[nH]c5ccccc5c34)nc3cncc(C4CCC4)c23)C1` (centres unmarked) [Example 232, [5-Cyclobutyl-2-(9H-pyrido[2,3-b]indol-4-yl)-pyrido[3,4-d]pyrimidin-4-yl]-(6-fluoro-azepan-4-yl)-amine], the IC50 was below 0.1 µM.
On to `C[C@@H]1CNCC[C@@H]1Nc1nc(-c2ccnc(Nc3nc(F)cc(F)c3F)c2)nc2cncc(C3CCC3)c12` (racemic) [Example 295, {5-Cyclobutyl-2-[2-(3,4,6-trifluoro-pyridin-2-ylamino)-pyridin-4-yl]-pyrido[3,4-d]pyrimidin-4-yl}-(rac-(3R,4S)-3-methyl-piperidin-4-yl)-amine], for which the IC50 was below 0.1 µM.
For `CN(c1nc(-c2ccnc3[nH]c4ccccc4c23)nc2cncc(C3CCC3)c12)[C@@H]1CCNC[C@@]1(C)O` (racemic) [Example 77, (±)-(3,4-trans)-4-{[5-Cyclobutyl-2-(9H-pyrido[2,3-b]indol-4-yl)-pyrido[3,4-d]pyrimidin-4-yl]-methyl-amino}-3-methyl-piperidin-3-ol], the IC50 was below 0.1 µM.
In the case of `CN(c1nc(-c2ccnc(Nc3cc4ccccn4n3)c2)nc2cncc(C3CC3)c12)C1CCNCC1(C)C` (centres unmarked) [Example 36, {5-Cyclopropyl-2-[2-(pyrazolo[1,5-a]pyridin-2-ylamino)-pyridin-4-yl]-pyrido[3,4-d]pyrimidin-4-yl}-(3,3-dimethyl-piperidin-4-yl)-methyl-amine], the IC50 was below 0.1 µM.
In the case of `C[C@@H]1CNCC[C@@H]1Nc1nc(-c2ccnc(Nc3nc(F)ccc3F)c2)nc2cncc(C3CCC3)c12` (single isomer, unassigned) [Example 297, {5-Cyclobutyl-2-[2-(3,6-difluoro-pyridin-2-ylamino)-pyridin-4-yl]-pyrido[3,4-d]pyrimidin-4-yl}-((3R,4S)-3-methyl-piperidin-4-yl)-amine or enantiomer], the IC50 was below 0.1 µM.
To `CN(c1nc(-c2ccnc(Nc3nc(C4CC4)cs3)c2)nc2cncc(C3CC3)c12)C1CCNCC1(C)C` (centres unmarked) [Example 53, {5-Cyclopropyl-2-[2-(4-cyclopropyl-thiazol-2-ylamino)-pyridin-4-yl]-pyrido[3,4-d]pyrimidin-4-yl}-(3,3-dimethyl-piperidin-4-yl)-methyl-amine] belongs 0.1 to 1 µM; to `CC1(C)CC(Nc2nc(-c3ccnc(Nc4nc(F)c(F)cc4F)c3)nc3cncc(C4CCC4)c23)CCN1` (centres unmarked) [Example 137, {5-Cyclobutyl-2-[2-(3,5,6-trifluoro-pyridin-2-ylamino)-pyridin-4-yl]-pyrido[3,4-d]pyrimidin-4-yl}-(2,2-dimethyl-piperidin-4-yl)-amine], below 0.1 µM; to `N[C@H]1C[C@H](Nc2nc(-c3ccnc4[nH]c5ccccc5c34)nc3cncc(C4CCC4)c23)C1` [Example 11, trans-N-[5-Cyclobutyl-2-(9H-pyrido[2,3-b]indol-4-yl)-pyrido[3,4-d]pyrimidin-4-yl]-cyclobutane-1,3-diamine], below 0.1 µM.
For `CC1(c2cc3c(-c4nc(N[C@H]5CC[C@H](N)CC5)c5c(C6CC6)cncc5n4)ccnc3[nH]2)CC1(F)F` (stereo partly drawn) [Example 12, trans-N-{5-Cyclopropyl-2-[2-(2,2 difluoro-1-methyl-cyclopropyl)-1H-pyrrolo[2,3-b]pyridin-4-yl]-pyrido[3,4-d]pyrimidin-4-yl}-cyclohexane-1,4-diamine], the IC50 is below 0.1 µM.
For `CC1(C)CNCC[C@@H]1Nc1nc(-c2ccnc(Nc3cccnc3)c2)nc2cncc(C3CCC3)c12` [Example 264, 5-cyclobulyl-N-[(4S)-3,3-dimethyl-4-piperidyl]-2-[2-(3-pyridylamino)-4-pyridyl]pyrido[3,4-d]pyrimidin-4-amine] the value was below 0.1 µM; for `Cc1cc2c(-c3nc(N4CCCC5NCCCC54)c4c(C5CCC5)cncc4n3)ccnc2[nH]1` (centres unmarked) [Example 95, 5-Cyclobutyl-2-(2-methyl-1H-pyrrolo[2,3-b]pyridin-4-yl)-4-(octahydro-[1,5]naphthyridin-1-yl)-pyrido[3,4-d]pyrimidine], below 0.1 µM.
